Values of other authors as cited in paper PMC8042970, “A phase 1 study of dalpiciclib, a cyclin-dependent kinase 4/6 inhibitor in Chinese patients with advanced breast cancer” (Biomarker Research, 2021).
Where two headings read alike, the source gives them in different places. Blank lines part the entries; values can stand above or below the compound they belong to.

Assays:
[1] = set-up: method as in product label or FDA review; settings: ref product label or FDA review
[2] = set-up: method as in product label or FDA review; settings: ref product label or FDA review; remark: listed apart in the source
[3] = set-up: method as in product label or FDA review; settings: ref product label or FDA review; remark: listed apart in the source
[4] = system: CDK4; settings: ref product label or FDA review
[5] = system: HR-positive and HER2-negative metastatic breast cancer
[6] = system: CDK6; settings: ref product label or FDA review
[7] = single agent abemaciclib, heavily pretreated population
[8] = single agent palbociclib, moderately pretreated population
[9] = phase 1 dose-escalation study of palbociclib

Cmin,ss ([1]; at recommended dose): 631 ng/mL
Mild hepatic/renal impairment [1]: No effect on exposure
Tmax [1]: 1−4 h
Volume of distribution [1]: 1090 L
DLT: increased creatinine (phase 1 study of ribociclib): 1
DLT: mucositis (phase 1 study of ribociclib): 1
DLT: neutropenia (phase 1 study of ribociclib): 3 cases
DLT: pulmonary embolism (phase 1 study of ribociclib): 1
DLT: thrombocytopenia (phase 1 study of ribociclib): 2 cases
Patients with DLTs (phase 1 study of ribociclib, first treatment cycle): 13%
Metabolism [2]: Liver (CYP3A4)
Excretion, Feces [3]: 69%
Excretion, Urine [3]: 23%
Structure (SMILES): CN(C)C(=O)c1cc2cnc(Nc3ccc(N4CCNCC4)cn3)nc2n1C1CCCC1 [ribociclib]
DLT: QTcF prolongation (phase 1 study of ribociclib): 1
Patients with QTcF prolongation (ribociclib): 6–9%

Metabolism [2]: Liver (CYP3A4)
IC50 [6]: 9.9 nM
Excretion, Feces [3]: 81%
Excretion, Urine [3]: 3%
Structure (SMILES): CCN1CCN(Cc2ccc(Nc3ncc(F)c(-c4cc(F)c5nc(C)n(C(C)C)c5c4)n3)nc2)CC1 [abemaciclib]
DCR [5, 7]: 66.7%
Median PFS [5, 7]: 5.9 months

Structure (SMILES): CC(=O)c1c(C)c2cnc(Nc3ccc(N4CCNCC4)cn3)nc2n(C2CCCC2)c1=O [palbociclib]
AUCss ([1]; at recommended dose): 1633 to 1982 ng·h/mL
Tmax [1]: 6−12 h
Volume of distribution [1]: 2583 L
t1/2 [1]: 29 h
DCR [5, 8]: 63.8%
MTD and recommended phase 2 dose [9]: 125 mg
Patients with DLT [9]: 12%
Patients with QTc value of > 500 ms (phase 1 trial of palbociclib): none
Patients with maximum increase from baseline QTc of < 30 ms (phase 1 trial of palbociclib): 26 of 41
